As a reminder, the IC50 is the concentration at which inhibition is half-maximal.

From US20050250709A1, “Anti-neoplastic agents, combination therapies and related methods” (Bionaut Pharmaceuticals, priority 2003, published 2005) come the findings set out here.

The subject of series [1] is EGF-responsive gene expression. In words: EGF-responsive gene expression in recovered reporter cell lines. The format is cell-based. As to the method:
(§1) Cancer cell lines (Panc1, for pancreatic cancer, and A549 for non-small cell lung carcinoma) were transfected with the construct depicted in FIG. 1. The retroviral vector contained a […] gene (a negative selection marker), a zeocin resistance marker (a positive selection marker) and a gene encoding beta-galactosidase “β-gal”, as a reporter gene.
Cells were grown to a significant cell density and exposed to zeocin, so as to select for cells expressing the zeocin marker in the presence of high levels of extracellular signaling. Cells were also exposed to a growth factor, such as EGF, insulin or IGF, although in some instances, the growth factor had only minor effects on gene expression compared to the generalized effect of extracellular signaling. The selected cell cultures were greatly depleted of cells by zeocin treatment, as the vast majority of cells were eliminated by the zeocin. […] Under these conditions, cells were exposed to an agent such as ganciclovir that causes lethality in TK+ cells. This selection step eliminated those cells containing a nucleic acid construct that is expressed at significant levels even in low extracellular signaling conditions. The resulting cells were then used for further study.
FIGS. 3 through 9 depict the results from a series of experiments characterizing the recovered cell lines. […]

The subject of series [2] is MCF-7/Breast. The series can be described thus: anti-proliferative effect, MCF-7 breast cancer cell line. The format is cell-based. As to conditions: Homo sapiens, MCF7. The text has this:
(§2) The inhibition of reporter activity was later correlated with an anti-proliferative effect in representative colon, lung, prostate, cervical, renal, uterine, breast, and pancreatic cancer cell lines as shown in table 1.

The subject of series [3] is Panc-1. The series can be described thus: anti-proliferative effect, Panc-1 pancreatic cancer cell line. Format: cell-based. As to conditions: Homo sapiens; Panc-1, anti-proliferative.
Text: as §2

Series [4] relates to C-33A/Cervical. In words: anti-proliferative effect, C-33A cervical cancer cell line. As to conditions: Homo sapiens. The format is cell-based.
Text: as §2

The test system of series [5] is EGF, HIF responsive cell line (HIF-responsive reporter gene). In words: reporter gene assay in EGF, HIF responsive cancer cell line. The format is cell-based. As to conditions: for effect on regulated reporter gene expression (screen): single agents, screen of thousands of compounds. As to the method:
as §1
Cells were grown to a significant cell density and exposed to zeocin, so as to select for cells expressing the zeocin marker in the presence of high levels of extracellular signaling. […] Under these conditions, cells were exposed to an agent such as ganciclovir that causes lethality in TK+ cells. This selection step eliminated those cells containing a nucleic acid construct that is expressed at significant levels even in low extracellular signaling conditions. The resulting cells were then used for further study.
An EGF, HIF responsive cell line was screened for compounds affecting the regulated gene expression. Thousands of compounds were screened.
(In general: A reporter such as luciferase makes a cellular process visible.)

The subject of series [6] is MES-SA-DX5/Uterine. The series can be described thus: anti-proliferative effect, MES-SA-DX5 uterine cancer cell line. The settings on record: Homo sapiens. Format: cell-based.
Text: as §2

Series [7] deals with PC3/Prostate. In words: anti-proliferative effect, PC3 prostate cancer cell line. The format is cell-based.
Text: as §2

In series [8] the test system is LnCap/Prostate. In words: anti-proliferative effect, LnCap prostate cancer cell line. Format: cell-based. As to conditions: Homo sapiens.
Text: as §2

Series [9] relates to SK-MES/Lung. In words: anti-proliferative effect, SK-MES lung cancer cell line. The format is cell-based.
Text: as §2

Series [10] relates to HIF-2α protein. The series can be described thus: level of HIF-2α protein in cancer cells. The format is cell-based.
Series [11] deals with Caki-1/Renal. In words: anti-proliferative effect, Caki-1 renal cancer cell line. Format: cell-based. The settings on record: Homo sapiens.
Text: as §2

For series [12], the system named is DU-145/Prostate. The series can be described thus: anti-proliferative effect, DU-145 prostate cancer cell line. Format: cell-based. The settings on record: Homo sapiens.
Text: as §2

The subject of series [13] is MES-SA/Uterine. In words: anti-proliferative effect, MES-SA uterine cancer cell line. The format is cell-based. The settings on record: Homo sapiens.
Text: as §2

Series [14] in a line: serum half-life.
Series [15] concerns HCT-116/Colon. In words: anti-proliferative effect, HCT-116 colon cancer cell line. The settings on record: Homo sapiens. The format is cell-based.
Text: as §2

The test system of series [16] is A549/Lung. The series can be described thus: anti-proliferative effect, A549 lung cancer cell line. The format is cell-based. As to conditions: Homo sapiens.
Text: as §2

Series [17] concerns HT-29/Colon. In words: anti-proliferative effect, HT-29 colon cancer cell line. The format is cell-based. As to conditions: Homo sapiens.
Text: as §2
The ouabain concentration required to achieve an antiproliferative effect in cells of the HT29 colon cancer cell line (FIG. 20) is decreased five-fold in the presence of bicalutamide (Casodex).

The test system of series [18] is several different cancer cell lines. The series can be described thus: proliferation of cancer cell lines (several lines, summary). The format is cell-based. As to conditions: range over cell lines, read-out: IC50 across several different cancer cell lines. As to the method: The IC50 measured for ouabain across several different cancer cell lines ranged from about 80 nM to about 300 nM. The concentration at which a cardiac glycoside is effective as part of an antiproliferative treatment may be further decreased by combination with an additional agent that negatively regulates HIF-responsive genes, such as a redox effector or a steroid signal modulator. For example, as shown herein, the concentration at which a cardiac glycoside (ouabain) is effective for inhibiting proliferation of cancer cells is decreased 5-fold by combination with a steroid signal modulator (Casodex). Therefore, in certain embodiments, the invention provides combination therapies of cardiac glycosides with, for example, steroid signal modulators and/or redox effectors. Additionally, cardiac glycosides may be combined with radiation therapy, taking advantage of the radiosensitizing effect that many cardiac glycosides have.

Where a name gives a salt, the structure may show the parent alone. Some results are limits rather than exact numbers.

For the compound `COc1cc2ncnc(Nc3ccc(F)c(Cl)c3)c2cc1OCCCN1CCOCC1` [Iressa], the EGF-responsive gene expression entry in series [1] is on record as “inhibited”.

Regarding `O=C(Nc1ccc([N+](=O)[O-])cc1Cl)c1cc(Cl)ccc1O` [Niclosamide, niclosamide], the IC50 in series [2] was determined as 2500 nM; in series [3], 5000 nM; in series [4], 5000 nM; in series [6], 6000 nM; in series [7] it was 5000 nM; in [8] it was 2000 nM. Besides, the 50% inhibitory concentration (IC50) in series [9] worked out at 2000 nM; in series [11] it was 1500 nM; in series [12] it was 5000 nM; in [13], 9000 nM; in series [15], 800 nM; in series [16], 1500 nM. Further, the concentration for half-maximal inhibition (IC50) in series [17] came to 8000 nM. Besides, the “effect on regulated reporter gene expression (screen)” value (“effect” for short) in [5] is on record as “effective”. The “level of HIF-2α protein” value in series [10] is on record as “decrease”. Besides, in [14], the serum half-life entry is “short”.

Consider `C[C@@H]1O[C@@H](O[C@H]2C[C@@H](O)[C@]3(CO)[C@H]4[C@H](O)C[C@]5(C)[C@@H](C6=CC(=O)OC6)CC[C@]5(O)[C@@H]4CC[C@]3(O)C2)[C@H](O)[C@H](O)[C@H]1O` [Ouabain, ouabain], for which the half-maximal inhibitory concentration (IC50) in series [2] amounted to 100 nM; in [3], 150 nM; in series [4], 100 nM; in series [6] it was 80 nM; in [7], 150 nM; in series [8], 150 nM. Further, the IC50 was 100 nM in series [9]; 80 to 300 nM in series [18]; 150 nM in series [11]; 300 nM in [12]; 80 nM in series [13]; 150 nM in series [15]. In addition, the results for the IC50 in [16] and in series [17] were 300 nM and greater than 800 nM, respectively. Also, in series [5], the “required dose for inhibition of reporter activity relative to cardiotonic dose” value is recorded as “well below the dose required for ouabain as a cardiotonic agent”. For the same compound, in series [5], the “effect” value is on record as “effective”.

With `CCCCC(CC)CNC(=N)NC(=N)NCCCCCCNC(=N)NC(=N)NCC(CC)CCCC` (stereo not drawn) [alexidine dihydrochloride], in [5], the “effect” value is “effective”.

Take `CC(C)/N=c1\cc2n(-c3ccc(Cl)cc3)c3ccccc3nc-2cc1Nc1ccc(Cl)cc1` [clofazimine]: the “effect” value in series [5] is “effective”.

Turning to `Clc1ccccc1C(c1ccccc1)(c1ccccc1)n1ccnc1` [clotrimazole], in series [5], the “effect” value was “effective”.

In the case of `C/C=C(/C(=C/C)c1ccc(O)cc1)c1ccc(O)cc1` [dienestrol], the “effect” value in series [5] was “effective”.

For `CC/C(=C(/CC)c1ccc(O)cc1)c1ccc(O)cc1` [diethylstilbestrol], in series [5], the “effect” value is recorded as “effective”.

With `C[C@]12CC[C@H](O)C[C@H]1CC[C@@H]1[C@@H]2CC[C@]2(C)[C@@H](C3=CC(=O)OC3)CC[C@]12O` [digitoxigenin], the “effect” value in series [5] is “effective”.

`C[C@H]1O[C@@H](O[C@H]2[C@@H](O)C[C@H](O[C@H]3[C@@H](O)C[C@H](O[C@H]4CC[C@@]5(C)[C@H](CC[C@@H]6[C@@H]5C[C@@H](O)[C@]5(C)[C@@H](C7=CC(=O)OC7)CC[C@]65O)C4)O[C@@H]3C)O[C@@H]2C)C[C@H](O)[C@@H]1O` [digoxin]: in series [5], the “effect” value was “effective”.

As to `Clc1ccc(COC(Cn2ccnc2)c2ccc(Cl)cc2Cl)cc1` (stereo not drawn) [econazole nitrate], the “effect” value in series [5] is “effective”.

Regarding `CC(=O)O[C@H]1C[C@H](O[C@H]2[C@@H](O)C[C@H](O[C@H]3[C@@H](O)C[C@H](O[C@H]4CC[C@@]5(C)[C@H](CC[C@@H]6[C@@H]5C[C@@H](O)[C@]5(C)[C@@H](C7=CC(=O)OC7)CC[C@]65O)C4)O[C@@H]3C)O[C@@H]2C)O[C@H](C)[C@H]1O[C@@H]1O[C@H](CO)[C@@H](O)[C@H](O)[C@H]1O` [lanatoside C], the “effect” value in [5] was “effective”.

For `OC(c1cc(C(F)(F)F)nc2c(C(F)(F)F)cccc12)C1CCCCN1` (stereo not drawn) [mefloquine hydrochloride], the “effect” value in series [5] is on record as “effective”.

Consider `CC1=CC(=O)c2ccccc2C1=O` [menadione], for which, in series [5], the “effect” value was “effective”.

For the compound `CCCC(C(=O)OCCN(CC)CC)(c1ccccc1)c1ccccc1` [proadifen hydrochloride], the “effect” value in series [5] is recorded as “effective”.
